Test results taken from patent publication US10774051B2, “6-membered heterocyclic derivatives and pharmaceutical composition comprising the same” (Shionogi & Co., Ltd., priority 2015, dated 2020).

What follows are molecules tested against human P2X7 receptor (Homo sapiens, UniProt Q99572, R270H/Y155H) (assay: Evaluation of human P2X7 receptor inhibitory activity (Yo-Pro uptake, BzATP stimulation, FLIPR TETRA)). Conditions: 1321N1 cells stably expressing human P2X7 receptor; BzATP stimulation, Yo-Pro uptake; read-out: IC50 (antagonistic activity for the human P2X7 receptor).
Type: cell-based
Method: Stably expressing cell line (1321N1 cell transfected with the human P2X7 receptor gene (GenBank accession number NM_002562.5 including T606C and G952A SNP)) was used. The cells were seeded in a 384-well microtiter plate at a concentration of 8000 cells/well and cultured in the medium (10% fetal bovine serum, 25 mM HEPES, 1% penicillin and streptomycin in DMEM) for one day at 37° C. under 5% carbon dioxide atmosphere. After replacing with 20 μL of the HBSS buffer (20 mM HEPES, 55.6 mM D-glucose, 1×HBSS(−), pH7.4-7.5), 15 μL of 17.3 μM Yo-Pro solution in the HBSS buffer was added. The plate was placed in high-throughput cellular screening system FLIPR TETRA (Molecullar Devices, LLC.) and 15 μL of 130 μM BzATP solution in the HBSS buffer was added. Measurement of fluorescence intensity by FLIPR TETRA was started. After eight minutes, 15 μL of DMSO solutions containing different concentrations of the compound of the present invention as prepared by dilution with the HBSS buffer were dispensed to each well through the built-in automatic dispenser, and the measurement of fluorescence intensity was continued for 20 minutes. […] Changing values of fluorescence intensity by the compound of the present invention were calculated by difference between maximum and minimum fluorescence intensity for 20 minutes. Inhibition ratios (%) were calculated from the following equation:
[formula] IC50 was calculated using logistic approximation.

Compound	IC50 [nM]
COc1cn(Cc2ccccc2F)c(Nc2cc(C)c(C)cc2C)nc1=O [Compound I-0176]	13
CCc1cc2c(cc1Nc1nc(=O)c(OC)cn1Cc1ccccc1F)CCC2 [Compound I-0178]	21
COc1cn(Cc2ccccc2)c(Nc2cncc(Cl)c2C)nc1=O [Compound I-0185]	270
CCc1cc2c(cc1Nc1nc(=O)c(F)cn1Cc1ccc(F)cc1)CCC2 [Compound I-0186]	2
COc1cn(Cc2ccccc2)c(NC2CCc3ccccc3C2)nc1=O (stereo not shown) [Compound I-0187]	230
COc1cn(Cc2ccccc2)c(Nc2cccc3c2CCCC3)nc1=O [Compound I-0190]	71
COc1cn(Cc2ccc(Cl)cc2)c(Nc2cc(C)c(C)cc2C)nc1=O [Compound I-0193]	18
CCc1cc2c(cc1Nc1nc(=O)c(OC)cn1Cc1ccc(Cl)cc1)CCC2 [Compound I-0195]	26
CCOC(=O)c1cn(Cc2ccccc2)c(Nc2cc(C)c(C)cc2C)nc1=O [Compound I-0196]	13
Cc1c(Cl)cccc1Nc1nc(=O)c(O)cn1Cc1ccccc1 [Compound I-0203]	18
Cc1cc(C)c(Nc2nc(=O)c(C(=O)O)cn2Cc2ccccc2)cc1C [Compound I-0205]	91
Cc1ccc(N2CCCS2(=O)=O)cc1Nc1nc(=O)c(F)cn1Cc1ccc(F)cc1 [Compound I-0207]	9
Cc1cc(C)c(Nc2nc(=O)c(C(N)=O)cn2Cc2ccccc2)cc1C [Compound I-0218]	19
CCc1cc2c(cc1Nc1nc(=O)c(OC)cn1Cc1ccc(F)c(Cl)c1)CCC2 [Compound I-0242]	12

Same assay, conditions: 1321N1 cells stably expressing human P2X7 receptor; BzATP stimulation, Yo-Pro uptake; read-out: IC50 (antagonistic activity for the human P2X7 receptor), class symbol

Compound	IC50 [nM]
CCc1ccc(Cl)cc1Nc1nc(=O)c(OC)cn1Cc1ccccc1 [Compound I-0175]	10 to 100
COc1cn(Cc2cccc(F)c2)c(Nc2cc(C)c(C)cc2C)nc1=O [Compound I-0177]	< 10
CCc1cc2c(cc1Nc1nc(=O)c(OC)cn1Cc1cccc(F)c1)CCC2 [Compound I-0179]	< 10
COc1cn(Cc2ccccc2)c(Nc2cc(CO)ccc2C)nc1=O [Compound I-0180]	10 to 100
COc1cn(Cc2ccccc2)c(Nc2cc(C(N)=O)ccc2Cl)nc1=O [Compound I-0181]	500 to 1000
COc1cc(C)c(Nc2nc(=O)c(OC)cn2Cc2ccccc2)cc1OC [Compound I-0182]	< 10
COc1cc(C)c(Nc2nc(=O)c(F)cn2Cc2ccccc2)cc1OC [Compound I-0183]	10 to 100
COc1cn(Cc2ccccc2)c(Nc2ccc(Br)cc2Cc2ccccc2)nc1=O [Compound I-0184]	100 to 500
COc1cn(Cc2ccccc2)c(Nc2ccc(OC(C)C)cc2C)nc1=O [Compound I-0191]	100 to 500
COc1cn(Cc2ccccc2Cl)c(Nc2cc(C)c(C)cc2C)nc1=O [Compound I-0192]	10 to 100
CCc1cc2c(cc1Nc1nc(=O)c(OC)cn1Cc1ccccc1Cl)CCC2 [Compound I-0194]	10 to 100
COc1cn(Cc2ccccc2)c(Nc2cccc(Oc3ccccn3)c2C)nc1=O [Compound I-0198]	100 to 500
CCc1ccccc1Nc1nc(=O)c(OC)cn1Cc1ccc(F)cc1 [Compound I-0200]	10 to 100
COc1cn(Cc2ccccc2)c(N[C@@H]2CCc3ccccc32)nc1=O [Compound I-0201]	500 to 1000
COc1cn(Cc2ccccc2)c(Nc2ccc(N3CCOCC3)cc2C)nc1=O [Compound I-0204]	100 to 500
CCOc1cc(C)c(Nc2nc(=O)c(OC)cn2Cc2ccccc2)cc1C [Compound I-0206]	10 to 100
COc1cc(C)c(Nc2nc(=O)c(OC)cn2Cc2cccc(Cl)c2)cc1OC [Compound I-0208]	< 10
COc1cc(C)c(Nc2nc(=O)c(F)cn2Cc2ccc(F)cc2)cc1OC [Compound I-0209]	< 10
CCc1ccc(Nc2nc(=O)c(OC)cn2Cc2ccccc2)c(CC)c1 [Compound I-0210]	10 to 100
CCc1ccc(CC)c(Nc2nc(=O)c(OC)cn2Cc2ccccc2)c1 [Compound I-0211]	< 10
CCc1c(Nc2nc(=O)c(OC)cn2Cc2ccccc2)cccc1OC [Compound I-0212]	< 10

Compound	IC50 [nM]
CCc1c(Nc2nc(=O)c(OC)cn2Cc2ccc(F)cc2)cccc1OC [Compound I-0213]	< 10
CCc1c(Nc2nc(=O)c(OC)cn2Cc2cccc(Cl)c2)cccc1OC [Compound I-0214]	< 10
CCc1c(Cl)cccc1Nc1nc(=O)c(OC)cn1Cc1ccccc1 [Compound I-0215]	< 10
Cc1c(Cl)cccc1Nc1nc(=O)c(C(F)(F)F)cn1Cc1ccccc1 [Compound I-0216]	100 to 500
COc1cn(Cc2ccccc2)c(Nc2cccc(N(C)C)c2C)nc1=O [Compound I-0217]	10 to 100
Cc1cc(C)c(Nc2nc(=O)c(C(=O)NC3CCOCC3)cn2Cc2ccccc2)cc1C [Compound I-0219]	10 to 100
COc1cc(C)c(Nc2nc(=O)c(OC)cn2Cc2ccccc2)cc1C [Compound I-0220]	< 10
COc1cn(Cc2ccccc2)c(Nc2cc3[nH]ncc3cc2C)nc1=O [Compound I-0221]	10 to 100
COc1cn(Cc2ccc(F)c(F)c2)c(Nc2cccc(Cl)c2C)nc1=O [Compound I-0222]	< 10
CCc1ccccc1Nc1nc(=O)c(F)cn1Cc1cccc(Cl)c1 [Compound I-0223]	10 to 100
Cc1cccc(Nc2nc(=O)c(F)cn2Cc2cccc(Cl)c2)c1C [Compound I-0224]	< 10
CCc1ccccc1Nc1nc(=O)c(OC)cn1Cc1ccc(Cl)c(F)c1 [Compound I-0225]	100 to 500
Cc1cc(C)c(Nc2nc(=O)c(C(=O)NCC(=O)N(C)C)cn2Cc2ccccc2)cc1C [Compound I-0226]	10 to 100
COc1ccc(Nc2nc(=O)c(OC)cn2Cc2ccc(F)c(Cl)c2)c(C)c1 [Compound I-0227]	10 to 100
COc1cn(Cc2ccc(F)c(Cl)c2)c(Nc2cc(C(C)C)ccc2C)nc1=O [Compound I-0228]	10 to 100
COc1cc(C)c(Nc2nc(=O)c(OC)cn2Cc2ccc(F)c(Cl)c2)cc1OC [Compound I-0229]	< 10
COc1cc(C)c(Nc2nc(=O)c(OC)cn2Cc2ccc(F)c(Cl)c2)cc1C [Compound I-0230]	< 10
CCOc1cc(C)c(Nc2nc(=O)c(OC)cn2Cc2ccc(F)c(Cl)c2)cc1C [Compound I-0231]	< 10
COc1cn(Cc2ccc(F)c(Cl)c2)c(Nc2cc(N3CCCS3(=O)=O)ccc2C)nc1=O [Compound I-0232]	< 10
COc1cn(Cc2ccccc2)c(Nc2cc(C)c(Cl)cc2C)nc1=O [Compound I-0233]	< 10
COc1ccc(Nc2nc(=O)c(OC)cn2Cc2cccc(Cl)c2)c(C)c1 [Compound I-0234]	10 to 100

Compound	IC50 [nM]
CCc1cc(OC)ccc1Nc1nc(=O)c(OC)cn1Cc1ccccc1 [Compound I-0235]	10 to 100
CCc1ccc(OC)cc1Nc1nc(=O)c(OC)cn1Cc1ccccc1 [Compound I-0236]	10 to 100
COc1cn(Cc2ccccc2)c(Nc2cc(C)c(OC(F)F)cc2C)nc1=O [Compound I-0237]	< 10
Cc1c(Cl)cccc1NC(=O)Cc1cn(Cc2ccccc2)c(Nc2cccc(Cl)c2C)nc1=O [Compound I-0238]	100 to 500
COc1cn(Cc2ccccc2)c(Nc2cc(-n3cccc3)ccc2C)nc1=O [Compound I-0239]	100 to 500
COc1cn(Cc2ccccc2)c(Nc2cc(-c3nnco3)ccc2C)nc1=O [Compound I-0240]	10 to 100
COc1cn(Cc2ccc(F)c(Cl)c2)c(Nc2ccc(OC(F)(F)F)cc2C)nc1=O [Compound I-0241]	10 to 100
COc1cn(Cc2ccc(F)c(Cl)c2)c(Nc2cc(C)c(C)cc2C)nc1=O [Compound I-0243]	< 10
COc1cn(Cc2ccc(F)c(Cl)c2)c(Nc2cc(C)c(OC(F)F)cc2C)nc1=O [Compound I-0244]	< 10
CCc1cc(OC)ccc1Nc1nc(=O)c(OC)cn1Cc1ccc(F)c(Cl)c1 [Compound I-0245]	< 10
CCc1ccc(OC)cc1Nc1nc(=O)c(OC)cn1Cc1ccc(F)c(Cl)c1 [Compound I-0246]	< 10
COc1cn(Cc2ccc(F)c(Cl)c2)c(Nc2cc(CO)c(C)cc2C)nc1=O [Compound I-0247]	< 10
COc1cn(Cc2ccc(F)c(Cl)c2)c(Nc2ccc(N(C)C)cc2C)nc1=O [Compound I-0248]	10 to 100
COc1ccc(Nc2nc(=O)c(OC)cn2Cc2cccc(F)c2)c(C)c1 [Compound I-0249]	< 10
COc1cc(C)c(Nc2nc(=O)c(OC)cn2Cc2cccc(Cl)c2)cc1C [Compound I-0250]	< 10
CCc1ccc(OC)cc1Nc1nc(=O)c(OC)cn1Cc1cccc(F)c1 [Compound I-0251]	10 to 100
CCc1ccccc1Nc1nc(=O)c(OC)cn1Cc1ccc(F)c(Cl)c1 [Compound I-0252]	< 10
CCc1ccc(OC)cc1Nc1nc(=O)c(OC)cn1Cc1ccc(F)cc1 [Compound I-0253]	10 to 100
CCc1ccc(OC)cc1Nc1nc(=O)c(OC)cn1Cc1cccc(Cl)c1 [Compound I-0254]	10 to 100
CCc1ccc(OC)cc1Nc1nc(=O)c(OC)cn1Cc1ccc(F)c(F)c1 [Compound I-0255]	< 10
